In patent publication US11779600B2, “Methods of treating or preventing alzheimer's disease and associated conditions” (CEDARS-SINAI MEDICAL CENTER, priority 2016, dated 2023):

System: MMP-9
Assay: MMP-9 expression in macrophages by quantitative ICC
Format: cell-based, mouse
Settings: quantitative ICC (FIG. 16F-16G)
Procedure: To test amyloid-β phagocytosis by macrophage, in repeated experiments monocytes were isolated from the bone marrow of wild-type mice (n=18 mice) and differentiated into macro-phage by 7-day cultivation in complete RPMI-1640 medium (#21870; Life Technologies) with 10% serum and 20 ng/ml MCSF (#315-02; PeproTech). Bone marrow-derived macrophages (MΦBM) were generated from femurs and tibiae cultured for 6-7 days in complete RPMI 1640 medium (Life Technologies) with 10% FBS, 100 U/ml penicillin, 100 μg/ml streptomycin, 2 mM L-glutamine and 20 ng/ml MCSF (PeproTech). Primary cultures of macrophage were then plated at 1.2×10^5 cells per well (3-4 wells for each condition) in 24-well tissue-culture plates on glass cover-slips overnight. Next, macrophages were either treated with 30 μg/ml GA (Copaxone®; TEVA Neuroscience), Brefeldin A (BFA; Sigma, 1X), or 10 μM Minocycline (Sigma) for the duration of 1, 3, or 24 h, or not treated (control group). […] The fluorescent signal and its total area were determined and quantified by the conversion of individual images to greyscale and standardizing to baseline using histogram-based thresholds with NIH ImageJ software. […]
Next, MMP-9 expression and OPN proteolytic fragments were analyzed. […]

Substance: glatiramer acetate [GA]
- increase of MMP-9 expression in macrophages: 2.7 fold
